Data reported in ChEMBL document CHEMBL5113511, “Discovery of Small-Molecule Degraders of the CDK9-Cyclin T1 Complex for Targeting Transcriptional Addiction in Prostate Cancer” (J Med Chem, 2022).
Calls of active or inactive are those of the source. The rule behind the calls is not given here.

What was measured:
Cyclin-T1 [1] = biological target: T1, Cyclin-T1 (Homo sapiens, UniProt O60563); assay: Induction of HyT-mediated degradation of Cyclin T1 in human 22Rv1 cells at 3 uM measured after 5 to 18 hrs by immunoblot analysis; assay type: cell-based; conditions: time 5-18 hrs
[2] = biological target: Cyclin-dependent kinase 1 (Homo sapiens) (UniProt P06493); assay: Induction of CDK1 degradation in human 22Rv1 cells assessed as downregulation of CDK1 level at 3 uM measured after 12 hrs by DIA-based proteomics analysis; assay type: cell-based
[3] = biological target: T2, CDK9/cyclin T1 (Homo sapiens) (UniProt O60563+P50750); assay: Induction of CDK9/Cyclin T1 degradation in human 22Rv1 cells assessed as decrease in cyclin C protein expression at 3 uM measured for 36 hrs by DIA-based proteomics analysis; assay type: cell-based
[4] = biological target: T2, CDK9/cyclin T1 (Homo sapiens); assay: Induction of CDK9/Cyclin T1 degradation in human 22Rv1 cells assessed as downregulation of TP53 gene expression at 2 uM incubated for 24 hrs by RNA-Seq based analysis; assay type: cell-based
[5] = biological target: T3, Cyclin-dependent kinase 9 (Homo sapiens, UniProt P50750); assay: Induction of HyT-mediated degradation of CDK9 in human 22Rv1 cells incubated for 24 hrs by immunoblot analysis; assay type: cell-based
[6] = biological target: T2, CDK9/cyclin T1 (Homo sapiens); assay: Induction of CDK9/Cyclin T1 degradation in human 22Rv1 cells assessed as downregulation of CCNE2 gene expression at 2 uM incubated for 24 hrs by RNA-Seq based analysis; assay type: cell-based
CWR22R [7] = assay: Downregulation of CDK4 level in human 22Rv1 cells at 3 uM measured after 12 hrs by DIA-based proteomics analysis; assay type: functional, cell-based
CWR22R [8] = assay: Downregulation of CDK1 level in human 22Rv1 cells at 3 uM measured after 12 hrs by DIA-based proteomics analysis; assay type: functional, cell-based
[9] = biological target: G1/S-specific cyclin-E1 (Homo sapiens) (UniProt P24864); assay: Induction of HyT-mediated degradation of cyclin E1 in human 22Rv1 cells assessed as reduction in cyclin E1 level at 6 uM incubated for 24 hrs by immunoblot analysis; assay type: cell-based
[10] = biological target: T2, CDK9/cyclin T1 (Homo sapiens); assay: Induction of CDK9/Cyclin T1 degradation in human 22Rv1 cells assessed as downregulation of AKR1C3 gene expression at 2 uM incubated for 24 hrs by RNA-Seq based analysis; assay type: cell-based
[11] = biological target: T3, Cyclin-dependent kinase 9; assay: Induction of HyT-mediated degradation of CDK9 in human 22Rv1 cells at 0.3 to 3 uM incubated for 24 hrs by immunoblot analysis; assay type: cell-based; conditions: dose 0.3-3 µM
[12] = biological target: T3, Cyclin-dependent kinase 9; assay: Induction of Hyt-mediated degradation of CDK9 in human 22Rv1 cells assessed as downregulation of CDK9 level at 2 uM incubated for 24 hrs by DIA-based proteomics analysis; assay type: cell-based
Cyclin-T1 [13] = biological target: T1, Cyclin-T1; assay: Induction of HyT-mediated degradation of Cyclin T1 in human 22Rv1 cells incubated for 24 hrs by immunoblot analysis; assay type: cell-based
[14] = biological target: Glycogen synthase kinase-3 alpha (Homo sapiens) (UniProt P49840); assay: Induction of Hyt-mediated degradation of GSK3A in human 22Rv1 cells assessed as downregulation of GSK3A protein level at 2 uM incubated for 24 hrs by DIA-based proteomics analysis; assay type: cell-based
[15] = biological target: T3, Cyclin-dependent kinase 9; assay: Induction of HyT-mediated degradation of CDK9 in human 22Rv1 cells at 3 uM measured for 36 hrs by DIA-based proteomics analysis; assay type: cell-based
[16] = biological target: T3, Cyclin-dependent kinase 9; assay: Induction of HyT-mediated degradation of CDK9 in human 22Rv1 cells assessed as reduction in CDK9 protein level at 3 uM measured after 24 to 48 hrs by immunoblot analysis; assay type: cell-based; conditions: time 24-48 hrs
[17] = biological target: T2, CDK9/cyclin T1 (Homo sapiens); assay: Induction of CDK9/Cyclin T1 degradation in human 22Rv1 cells assessed as downregulation of AR-V7 splice variant protein expression at 0.3 to 3 uM measured after 24 hrs by immunoblot analysis; assay type: cell-based; conditions: dose 0.3-3 µM
[18] = biological target: T3, Cyclin-dependent kinase 9; assay: Induction of Flag-tagged CDK9 (unknown origin) polyubiquitination expressed in HEK293T cells co-transfected with HA-tagged Cyclin T1 and Myc ubiquitin assessed as increase in K48-linkage poly-ubiqutinated CDK9 level at 1 to 2 uM incubated for 20 hrs by immunoprecipitation analysis; assay type: cell-based; conditions: dose 1-2 µM
[19] = biological target: T2, CDK9/cyclin T1 (Homo sapiens); assay: Induction of CDK9/Cyclin T1 degradation in human 22Rv1 cells assessed as downregulation of NOTCH1 gene expression at 2 uM incubated for 24 hrs by RNA-Seq based analysis; assay type: cell-based
[20] = biological target: Cyclin-dependent kinase 7 (Homo sapiens) (UniProt P50613); assay: Induction of CDK7 degradation in human 22Rv1 cells assessed as downregulation of CDK7 level at 3 uM measured after 12 hrs by DIA-based proteomics analysis; assay type: cell-based
[21] = biological target: T2, CDK9/cyclin T1 (Homo sapiens); assay: Induction of CDK9/Cyclin T1 degradation in human 22Rv1 cells assessed as downregulation of KLK1 gene expression at 2 uM incubated for 24 hrs by RNA-Seq based analysis; assay type: cell-based
[22] = biological target: T2, CDK9/cyclin T1 (Homo sapiens); assay: Induction of CDK9/Cyclin T1 degradation in human 22Rv1 cells assessed as downregulation of AR protein expression at 2 uM measured after 24 hrs by immunoblot analysis; assay type: cell-based
[23] = biological target: T2, CDK9/cyclin T1 (Homo sapiens); assay: Induction of CDK9/Cyclin T1 degradation in human 22Rv1 cells assessed as decrease in cyclin B1 protein expression at 3 uM measured for 36 hrs by DIA-based proteomics analysis; assay type: cell-based
CWR22R [24] = assay: Downregulation of CDK7 level in human 22Rv1 cells at 3 uM measured after 12 hrs by DIA-based proteomics analysis; assay type: functional, cell-based
CWR22R [25] = assay: Induction of cell cycle arrest in human 22Rv1 cells assessed as accumulation of cells at sub-G1 phase at 0.3 to 1 uM incubated for 24 hrs by propidium iodide staining based flow cytometry; assay type: functional; conditions: dose 0.3-1 µM
[26] = biological target: T2, CDK9/cyclin T1 (Homo sapiens); assay: Induction of CDK9/Cyclin T1 degradation in human 22Rv1 cells assessed as decrease in cyclin D1 protein expression at 3 uM measured for 36 hrs by DIA-based proteomics analysis; assay type: cell-based
[27] = biological target: T2, CDK9/cyclin T1 (Homo sapiens); assay: Induction of CDK9/Cyclin T1 degradation in human 22Rv1 cells assessed as downregulation of JMJD6 protein expression at 3 uM measured after 36 hrs by DIA-based proteomics analysis; assay type: cell-based
Cyclin-T1 [28] = biological target: T1, Cyclin-T1; assay: Induction of HyT-mediated degradation of Cyclin T1 in human 22Rv1 cells at 3 uM measured for 36 hrs by DIA-based proteomics analysis; assay type: cell-based
[29] = biological target: T2, CDK9/cyclin T1 (Homo sapiens); assay: Induction of CDK9/Cyclin T1 degradation in human 22Rv1 cells assessed as downregulation of WNT2 gene expression at 2 uM incubated for 24 hrs by RNA-Seq based analysis; assay type: cell-based
[30] = biological target: T3, Cyclin-dependent kinase 9; assay: Induction of HyT-mediated degradation of CDK9 in human 22Rv1 cells at 3 uM measured after 5 to 18 hrs by immunoblot analysis; assay type: cell-based; conditions: time 5-18 hrs
[31] = biological target: T2, CDK9/cyclin T1 (Homo sapiens); assay: Induction of CDK9/Cyclin T1 degradation in human 22Rv1 cells assessed as downregulation of AR protein expression at 2 uM measured after 48 hrs by immunoblot analysis relative to control; assay type: cell-based
[32] = biological target: T2, CDK9/cyclin T1 (Homo sapiens); assay: Induction of CDK9/Cyclin T1 degradation in human 22Rv1 cells assessed as downregulation of BTG1 gene expression at 2 uM incubated for 24 hrs by RNA-Seq based analysis; assay type: cell-based
[33] = biological target: T3, Cyclin-dependent kinase 9; assay: Induction of Flag-tagged CDK9 (unknown origin) polyubiquitination expressed in HEK293T cells co-transfected with HA-tagged Cyclin T1 and Myc ubiquitin assessed as increase in K48-linkage poly-ubiqutinated CDK9 level at 1 to 2 uM incubated for 20 hrs by western blot analysis; assay type: cell-based; conditions: dose 1-2 µM

T1 sequence (O60563 whole entry): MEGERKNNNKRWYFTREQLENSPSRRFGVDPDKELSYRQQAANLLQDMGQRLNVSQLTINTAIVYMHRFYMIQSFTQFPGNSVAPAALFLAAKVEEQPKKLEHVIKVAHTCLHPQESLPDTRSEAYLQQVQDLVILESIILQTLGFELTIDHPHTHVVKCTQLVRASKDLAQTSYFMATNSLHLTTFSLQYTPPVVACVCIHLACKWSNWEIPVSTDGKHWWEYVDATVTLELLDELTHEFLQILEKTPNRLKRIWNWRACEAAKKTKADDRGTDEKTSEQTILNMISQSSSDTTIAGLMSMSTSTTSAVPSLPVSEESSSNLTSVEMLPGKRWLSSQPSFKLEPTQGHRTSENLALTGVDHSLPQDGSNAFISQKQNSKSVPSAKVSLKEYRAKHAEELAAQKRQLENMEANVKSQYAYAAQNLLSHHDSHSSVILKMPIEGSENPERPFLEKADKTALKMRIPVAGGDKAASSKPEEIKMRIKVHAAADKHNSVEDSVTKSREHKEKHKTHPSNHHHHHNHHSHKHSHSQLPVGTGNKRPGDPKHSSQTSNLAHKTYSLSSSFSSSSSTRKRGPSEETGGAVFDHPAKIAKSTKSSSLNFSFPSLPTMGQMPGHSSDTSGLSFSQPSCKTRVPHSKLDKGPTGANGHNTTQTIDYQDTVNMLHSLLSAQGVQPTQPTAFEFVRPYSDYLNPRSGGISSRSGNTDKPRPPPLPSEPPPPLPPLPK
T3 sequence (P50750 whole entry): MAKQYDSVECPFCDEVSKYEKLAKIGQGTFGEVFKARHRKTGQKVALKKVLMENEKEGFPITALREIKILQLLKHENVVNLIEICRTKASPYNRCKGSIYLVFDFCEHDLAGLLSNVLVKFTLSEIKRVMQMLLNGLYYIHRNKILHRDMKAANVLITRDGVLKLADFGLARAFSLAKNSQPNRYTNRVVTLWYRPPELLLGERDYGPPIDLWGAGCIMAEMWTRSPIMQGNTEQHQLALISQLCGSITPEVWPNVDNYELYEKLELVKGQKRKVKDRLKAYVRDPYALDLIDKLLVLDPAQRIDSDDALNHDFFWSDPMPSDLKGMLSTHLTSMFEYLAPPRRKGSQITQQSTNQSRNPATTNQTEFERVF
Sequence of G1/S-specific cyclin-E1 (Homo sapiens) (P24864 whole entry): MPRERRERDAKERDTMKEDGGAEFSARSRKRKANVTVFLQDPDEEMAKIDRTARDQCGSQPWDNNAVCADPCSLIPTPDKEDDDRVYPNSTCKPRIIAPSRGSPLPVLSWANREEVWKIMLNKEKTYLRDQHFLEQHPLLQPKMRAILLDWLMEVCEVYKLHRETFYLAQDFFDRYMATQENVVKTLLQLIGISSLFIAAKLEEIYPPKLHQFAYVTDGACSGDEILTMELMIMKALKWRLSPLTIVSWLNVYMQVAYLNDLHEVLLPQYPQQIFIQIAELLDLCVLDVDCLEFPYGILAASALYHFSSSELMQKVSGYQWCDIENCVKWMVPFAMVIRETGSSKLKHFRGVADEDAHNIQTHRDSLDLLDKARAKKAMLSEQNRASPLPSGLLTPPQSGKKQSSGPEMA
Sequence of Cyclin-dependent kinase 1 (Homo sapiens) (P06493 whole entry, looked up): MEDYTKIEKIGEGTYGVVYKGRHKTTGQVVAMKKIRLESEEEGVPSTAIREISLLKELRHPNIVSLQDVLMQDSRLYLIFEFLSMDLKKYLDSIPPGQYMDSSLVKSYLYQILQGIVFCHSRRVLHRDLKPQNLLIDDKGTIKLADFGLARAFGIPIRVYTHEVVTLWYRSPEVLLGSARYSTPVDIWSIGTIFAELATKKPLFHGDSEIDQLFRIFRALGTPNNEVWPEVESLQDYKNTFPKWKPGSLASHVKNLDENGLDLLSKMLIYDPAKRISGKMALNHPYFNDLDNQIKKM
Sequence of Glycogen synthase kinase-3 alpha (Homo sapiens) (P49840 2-483 limits assumed): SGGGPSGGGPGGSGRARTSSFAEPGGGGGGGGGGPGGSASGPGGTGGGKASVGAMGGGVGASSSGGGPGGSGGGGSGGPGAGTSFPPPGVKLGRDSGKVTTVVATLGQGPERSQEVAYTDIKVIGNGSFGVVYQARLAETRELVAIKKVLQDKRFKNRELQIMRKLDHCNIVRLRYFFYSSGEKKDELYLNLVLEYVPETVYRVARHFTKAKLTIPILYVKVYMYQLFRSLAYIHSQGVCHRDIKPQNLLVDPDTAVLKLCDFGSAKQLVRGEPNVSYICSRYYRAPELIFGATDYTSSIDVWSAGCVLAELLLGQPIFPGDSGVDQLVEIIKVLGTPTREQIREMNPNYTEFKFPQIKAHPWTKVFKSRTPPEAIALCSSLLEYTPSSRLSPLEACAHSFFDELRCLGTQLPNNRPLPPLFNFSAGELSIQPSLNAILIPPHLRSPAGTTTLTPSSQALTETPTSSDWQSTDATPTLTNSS
Sequence of Cyclin-dependent kinase 7 (Homo sapiens) (P50613 whole entry): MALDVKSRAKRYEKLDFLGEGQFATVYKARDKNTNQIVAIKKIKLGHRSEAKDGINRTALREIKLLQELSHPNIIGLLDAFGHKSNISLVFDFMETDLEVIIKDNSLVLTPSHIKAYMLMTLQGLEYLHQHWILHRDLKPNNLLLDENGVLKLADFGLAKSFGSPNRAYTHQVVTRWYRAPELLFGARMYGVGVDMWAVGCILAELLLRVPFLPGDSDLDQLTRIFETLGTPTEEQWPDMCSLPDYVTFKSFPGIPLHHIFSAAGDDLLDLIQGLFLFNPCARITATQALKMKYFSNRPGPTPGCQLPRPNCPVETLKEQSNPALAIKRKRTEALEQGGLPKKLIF

- Activity (Cyclin-T1 [1]): Active
- Activity [2]: Active
- Activity [3]: Active
- Activity [4]: Active
- DC50 [5]: 662 nM
- Activity [6]: Active
- Activity [9]: Active
- Activity [10]: Active
- Activity [11]: Active
- Activity [12]: Active
- DC50 (Cyclin-T1 [13]): 589 nM
- Activity [14]: Active
- Activity [15]: Active
- Activity [16]: Active
- Activity [17]: Active
- Activity [18]: Active
- Activity [19]: Active
- Activity [20]: Active
- Activity [21]: Active
- Activity [22]: Active
- Activity [23]: Active
- Activity [26]: Active
- Activity [27]: Active
- Activity (Cyclin-T1 [28]): Active
- Activity [29]: Active
- Activity [30]: Active
- Activity [31]: 100%
- Activity [32]: Active
- Activity [33]: Active
Compound: CC(C)[C@@H]1CC[C@@H](C)C[C@H]1OCC(=O)NCCS(=O)(=O)N1CCC(C(=O)Nc2ncc(SCc3ncc(C(C)(C)C)o3)s2)CC1
- inhibition (CWR22R [7]): Active
- inhibition (CWR22R [8]): Active
- inhibition (CWR22R [24]): Active
- Activity (CWR22R [25]): Active
